Test results taken from PubChem BioAssay (NCI).
Where “and” joins values, the source holds several entries; their conditions need not be identical. Identical values can stand only once.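 The compound was tested at five concentrations on cells cultured in 96-well plates, with a 48-hour exposure period. GI50 is the concentration that inhibits growth by half. TGI: concentration producing complete growth inhibition.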

Experiments:
Assay in all cases: inhibition of tumour cell growth, NCI panel, 48 h
RXF 393 renal = test system: RXF 393 renal
KM12 colon = test system: KM12 colon
MDA-MB-231 breast = test system: MDA-MB-231 breast
K-562 leukemia = test system: K-562 leukemia
NCI-H460 lung = test system: NCI-H460 lung
SNB-75 CNS = test system: SNB-75 CNS
NCI-H226 lung = test system: NCI-H226 lung
M14 melanoma = test system: M14 melanoma
UO-31 renal = test system: UO-31 renal
LOX IMVI melanoma = test system: LOX IMVI melanoma

Row | Structure (SMILES) | GI50 (RXF 393 renal) [µM] | TGI (RXF 393 renal) [µM] | GI50 (KM12 colon) [µM] | TGI (KM12 colon) [µM] | GI50 (MDA-MB-231 breast) [µM] | TGI (MDA-MB-231 breast) [µM] | GI50 (K-562 leukemia) [µM] | TGI (K-562 leukemia) [µM] | GI50 (NCI-H460 lung) [µM] | TGI (NCI-H460 lung) [µM] | GI50 (SNB-75 CNS) [µM] | TGI (SNB-75 CNS) | GI50 (NCI-H226 lung) [µM] | TGI (NCI-H226 lung) [µM] | GI50 (M14 melanoma) [µM] | TGI (M14 melanoma) | GI50 (UO-31 renal) | TGI (UO-31 renal) | GI50 (LOX IMVI melanoma) [µM] | TGI (LOX IMVI melanoma)
1 | COc1ccc(/C=C/C(=O)c2ccc(O)c(CN3CCN(c4cc5c(cc4F)c(=O)c(C(=O)O)cn5C4CC4)CC3)c2)cc1 | 1.42 | 60.3 | 1.27 | > 100 | 2.19 | 13 | 0.463 | > 100 | 6.08 | > 100 | 0.726 | 6.86 µM | 3.75 | > 100 | 1.13 | > 100 µM | – | – | – | –
2 | CN[C@H](C#Cc1c(F)ccc2c1/C(=C/c1[nH]ccc1OC)C(=O)N2)CO | 0.0855 | 0.704 | 0.036 | 1.76 | 0.787 | 3 | 0.989 | 5.89 | 0.358 | 2.58 | 0.0777 | 3.88 µM | 0.41 | 1.72 | 0.403 | 3.14 µM | 0.335 µM | 2.54 µM | 0.344 | 2.54 µM
3 | O=C(Nc1cccc(-n2cc(-c3ccncc3)c(-c3cc(O)cc(Cl)c3)n2)c1)Nc1ccc(Cl)c(C(F)(F)F)c1 | 1.42 | 3.88 | 2.59 | 9.86 | 1.86 | 5.85 | 2.59 | 11.9 | 2.59 | 7.37 | 1.49 | 6.36 µM | 2.47 | 8.96 | 1.72 | 3.85 µM | 2.1 µM | 6.14 µM | 1.97 | 4.36 µM
4 | CC1OC(OC2C[C@](O)(C(=O)CF)Cc3c(O)c4c(c(O)c32)C(=O)c2ccccc2C4=O)CC(N)C1O (stereo not given in full) | – | 0.268 | – | 0.239 | – | 0.283 | – | 1.96 | – | 0.031 | – | 0.09 µM | – | < 0.0171 | – | 0.368 µM | – | 1.02 µM | – | 0.276 µM
5 | CCOC(=O)c1cc2c(n1Cc1cccc(OC)c1)-c1oncc1CCC2 | 1.07 | 6.89 | 0.58 | > 100 | 4.06 | > 100 | 0.456 | > 100 | 3.52 | > 100 | 0.927 | 6.56 µM | 32.1 | > 100 | 0.693 | > 100 µM | 4.48 µM | > 100 µM | 2.93 | > 100 µM
6 | O=C(O)C1OC1(c1cccc(Cl)c1)c1ccccc1Cl (stereo not given) | – | 82.1 | – | > 100 | – | 35.8 | – | 87.6 | – | > 100 | – | 57.6 µM | – | 83.8 | – | 42.2 µM | – | 58.5 µM | – | 44 µM
7 | Cc1ccc(C(CC(=O)c2ccccc2)C2C(=O)NC(=O)NC2=O)cc1 (stereo not given) | > 100 | > 100 | > 100 | > 100 | > 100 | > 100 | > 100 | > 100 | > 100 | > 100 | > 100 | > 100 µM | > 100 | > 100 | > 100 | > 100 µM | > 100 µM | > 100 µM | > 100 | > 100 µM
8 | CCC(C)[C@H]1O[C@]2(C=C[C@@H]1C)C[C@@H]1C[C@@H](C/C=C(\C)[C@@H](OC3C[C@H](OC)C(O[C@H]4C[C@H](OC)[C@@H](O)[C@H](C)O4)[C@H](C)O3)[C@@H](C)/C=C/C=C3\CO[C@@H]4[C@H](O)C(C)=C[C@@H](C(=O)O1)[C@]34O)O2 (stereo not given in full) | 0.939 | 3.5 | 1.67 | 5.96 | 1.42 | 5.81 | – | – | – | – | 2.74 | 9.09 µM | 1.08 | 3.27 | 1.04 | 2.33 µM | 0.807 µM | 1.73 µM | – | –
9 | COc1cc2oc3cc(=O)cc4oc(-c5ccccc5)cc(c2c2c1CCC(c1ccccc1)O2)c43 (stereo not given) | – | > 100 | – | 65.5 | – | 68.1 | – | 83.9 | – | > 100 | – | > 100 µM | – | > 100 | – | 33.4 µM | – | > 100 µM | – | > 100 µM
10 | COc1cccc2c1C(=O)c1c(O)c3c(c(O)c1C2=O)CC(O)(C(O)CO)CC3OC1CC(N2CCOCC2)C(O)C(C)O1 (stereo not given) | < 0.001 | – | – | 0.114 | – | 0.243 | – | 1.61 | – | – | – | 0.0131 µM and 0.0549 µM | < 0.001 | – | 0.0158 | 0.0288 µM and 0.0381 µM | 0.00398 µM and 0.0213 µM | 0.0314 µM and 0.0652 µM | 0.00285 | 0.15 µM and 0.0586 µM
11 | CCOC(=O)c1c2c(n(Cc3ccc(Cl)cc3Cl)c1C)-c1nc[nH]c1C(=O)C2=O | 10.2 | 22.7 | 5.87 | 19.4 | 2.24 | 5.04 | 3.21 | 12.3 | 4.79 | 15.9 | 1.99 | 9.62 µM | 14.2 | 31.5 | 14.7 | 27.8 µM | 12.4 µM | 49.5 µM | 3.54 | 13.7 µM
12 | N#CCCN(CCCN(CCCN(C(=O)Nc1ccccc1)c1ccccc1)C(=O)Nc1ccccc1)C(=O)Nc1ccccc1 | > 100 | > 100 | 18.7 | > 100 | > 100 | > 100 | – | > 8.75 | – | > 8.75 | 59.5 | > 100 µM | – | > 100 | > 100 | > 100 µM | – | > 8.75 µM | – | > 100 µM
13 | c1cc2n(n1)CCN2 | – | 9590 | – | > 10000 | – | > 10000 | – | > 10000 | – | 6710 | – | 9460 µM | – | > 9350 | – | 5760 µM | – | 9890 µM | – | 7690 µM
14 | Cc1cc(C(=C2C=CC(=Nc3ccccc3)C=C2)c2ccc(Nc3ccccc3)cc2)ccc1N | 0.344 | 1.28 | 0.312 | 1.05 | 0.363 | 1.34 | – | – | 0.223 | 0.532 | 0.598 | 2.22 µM | 0.446 | 1.72 | 0.286 | 1.04 µM | 0.305 µM | 1.38 µM | 0.169 | 0.31 µM
